Laboratory results: ChEMBL document CHEMBL5291721, “A preclinical secondary pharmacology resource illuminates target-adverse drug reaction associations of marketed drugs” (Nat Commun, 2023)

Experiments:
[1] = molecular target: Vasopressin V1a receptor (Homo sapiens, UniProt P37288)
[2] = molecular target: T1, 5-hydroxytryptamine receptor 2A (Homo sapiens, UniProt P28223); format: functional, cell-based
[3] = molecular target: Histamine H3 receptor (Homo sapiens, UniProt Q9Y5N1)
[4] = molecular target: Beta-2 adrenergic receptor (Homo sapiens, UniProt P07550); format: functional, cell-based
Sequence of Beta-2 adrenergic receptor (P07550 whole entry): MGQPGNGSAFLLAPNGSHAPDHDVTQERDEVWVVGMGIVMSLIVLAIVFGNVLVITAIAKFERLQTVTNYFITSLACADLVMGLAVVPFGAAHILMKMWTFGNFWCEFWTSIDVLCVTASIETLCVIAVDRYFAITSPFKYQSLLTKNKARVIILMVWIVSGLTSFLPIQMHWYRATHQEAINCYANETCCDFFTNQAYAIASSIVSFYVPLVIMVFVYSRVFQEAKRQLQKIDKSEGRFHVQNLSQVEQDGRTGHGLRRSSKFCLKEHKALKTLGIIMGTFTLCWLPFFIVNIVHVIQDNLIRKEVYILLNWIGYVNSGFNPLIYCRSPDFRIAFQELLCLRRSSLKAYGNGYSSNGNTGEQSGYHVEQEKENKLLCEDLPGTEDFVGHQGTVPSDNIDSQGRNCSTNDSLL

[5] = molecular target: T2, Endothelin-1 receptor (Homo sapiens, UniProt P25101)
T2 sequence (P25101 whole entry): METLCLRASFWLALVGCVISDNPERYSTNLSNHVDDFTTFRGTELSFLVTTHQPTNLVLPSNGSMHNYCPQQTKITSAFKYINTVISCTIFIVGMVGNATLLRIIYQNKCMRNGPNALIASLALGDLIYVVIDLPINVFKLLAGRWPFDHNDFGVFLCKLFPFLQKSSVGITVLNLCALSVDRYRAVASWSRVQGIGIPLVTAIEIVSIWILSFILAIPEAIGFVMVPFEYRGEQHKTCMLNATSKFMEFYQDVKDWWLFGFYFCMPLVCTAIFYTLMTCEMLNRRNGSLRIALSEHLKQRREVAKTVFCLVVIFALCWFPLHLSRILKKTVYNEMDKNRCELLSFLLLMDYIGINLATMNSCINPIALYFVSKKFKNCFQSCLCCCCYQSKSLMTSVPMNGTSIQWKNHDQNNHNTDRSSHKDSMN

[6] = molecular target: T3, Cannabinoid receptor 1 (Homo sapiens, UniProt P21554); format: functional, cell-based
[7] = molecular target: T3, Cannabinoid receptor 1; format: functional, cell-based; remark: listed apart in the source
[8] = molecular target: T4, Alpha-1A adrenergic receptor (Homo sapiens, UniProt P35348); format: functional, cell-based
T4 sequence (P35348 whole entry): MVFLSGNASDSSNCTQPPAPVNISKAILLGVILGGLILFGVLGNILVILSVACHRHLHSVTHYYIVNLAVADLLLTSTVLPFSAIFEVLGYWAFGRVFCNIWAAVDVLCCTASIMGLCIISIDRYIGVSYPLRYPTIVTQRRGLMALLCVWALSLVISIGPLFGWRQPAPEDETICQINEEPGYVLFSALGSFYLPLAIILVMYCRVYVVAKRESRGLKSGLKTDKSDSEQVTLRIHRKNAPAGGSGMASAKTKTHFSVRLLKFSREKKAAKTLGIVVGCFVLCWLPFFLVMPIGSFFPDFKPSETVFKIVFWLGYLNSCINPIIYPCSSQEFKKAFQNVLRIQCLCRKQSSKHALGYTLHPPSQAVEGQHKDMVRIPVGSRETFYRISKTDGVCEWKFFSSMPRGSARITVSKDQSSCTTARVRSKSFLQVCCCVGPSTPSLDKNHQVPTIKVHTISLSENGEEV

[9] = molecular target: T5, 5-hydroxytryptamine receptor 1A (Homo sapiens, UniProt P08908); format: functional, cell-based
T5 sequence (P08908 whole entry): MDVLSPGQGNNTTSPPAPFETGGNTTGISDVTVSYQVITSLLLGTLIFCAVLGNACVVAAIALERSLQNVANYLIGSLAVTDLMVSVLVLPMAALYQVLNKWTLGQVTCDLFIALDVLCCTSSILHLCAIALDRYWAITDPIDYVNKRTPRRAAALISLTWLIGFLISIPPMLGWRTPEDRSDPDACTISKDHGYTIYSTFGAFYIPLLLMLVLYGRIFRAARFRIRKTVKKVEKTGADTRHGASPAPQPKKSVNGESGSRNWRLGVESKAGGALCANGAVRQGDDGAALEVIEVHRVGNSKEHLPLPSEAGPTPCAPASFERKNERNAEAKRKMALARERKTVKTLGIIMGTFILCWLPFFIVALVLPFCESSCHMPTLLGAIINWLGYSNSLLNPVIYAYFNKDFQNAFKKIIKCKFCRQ

[10] = molecular target: T6, Glucocorticoid receptor (Homo sapiens, UniProt P04150)
T6 sequence (P04150 whole entry): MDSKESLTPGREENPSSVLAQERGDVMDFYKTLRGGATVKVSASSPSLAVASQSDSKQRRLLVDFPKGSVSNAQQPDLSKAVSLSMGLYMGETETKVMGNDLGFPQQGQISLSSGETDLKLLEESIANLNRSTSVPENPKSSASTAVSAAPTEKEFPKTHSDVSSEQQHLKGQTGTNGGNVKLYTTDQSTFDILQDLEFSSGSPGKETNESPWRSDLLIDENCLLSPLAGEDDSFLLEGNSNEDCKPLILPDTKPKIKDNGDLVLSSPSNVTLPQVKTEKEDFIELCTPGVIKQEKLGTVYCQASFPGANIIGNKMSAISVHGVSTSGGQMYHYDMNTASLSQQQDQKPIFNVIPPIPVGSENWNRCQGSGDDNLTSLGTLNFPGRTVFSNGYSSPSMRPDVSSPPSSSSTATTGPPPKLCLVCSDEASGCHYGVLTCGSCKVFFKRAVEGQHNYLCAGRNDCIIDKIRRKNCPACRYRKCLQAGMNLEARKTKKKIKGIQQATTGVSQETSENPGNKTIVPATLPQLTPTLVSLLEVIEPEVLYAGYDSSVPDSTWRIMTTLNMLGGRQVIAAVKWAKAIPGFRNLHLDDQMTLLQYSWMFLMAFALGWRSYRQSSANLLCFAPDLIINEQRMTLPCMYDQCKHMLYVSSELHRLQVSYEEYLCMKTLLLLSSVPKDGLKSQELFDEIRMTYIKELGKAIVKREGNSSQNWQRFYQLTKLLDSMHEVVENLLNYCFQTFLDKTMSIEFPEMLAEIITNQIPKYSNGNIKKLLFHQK

[11] = molecular target: D(1A) dopamine receptor (Homo sapiens, UniProt P21728); format: functional, cell-based
[12] = molecular target: T1, 5-hydroxytryptamine receptor 2A; format: functional, cell-based; remark: listed apart in the source
[13] = molecular target: Histamine H2 receptor (Homo sapiens, UniProt P25021); format: functional, cell-based
Sequence of Histamine H2 receptor (P25021 whole entry): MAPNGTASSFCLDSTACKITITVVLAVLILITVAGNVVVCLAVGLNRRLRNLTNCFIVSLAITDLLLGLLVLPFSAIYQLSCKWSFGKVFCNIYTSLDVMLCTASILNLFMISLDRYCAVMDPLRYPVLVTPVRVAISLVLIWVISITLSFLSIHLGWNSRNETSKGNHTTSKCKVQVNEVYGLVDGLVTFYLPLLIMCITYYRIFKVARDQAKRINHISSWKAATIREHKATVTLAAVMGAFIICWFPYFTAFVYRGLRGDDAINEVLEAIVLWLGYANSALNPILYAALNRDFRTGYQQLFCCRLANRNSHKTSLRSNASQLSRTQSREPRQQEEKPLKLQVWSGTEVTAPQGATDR

[14] = molecular target: Voltage-dependent L-type calcium channel subunit alpha-1C (Rattus norvegicus, UniProt P22002); format: functional
Sequence of Voltage-dependent L-type calcium channel subunit alpha-1C (P22002 whole entry): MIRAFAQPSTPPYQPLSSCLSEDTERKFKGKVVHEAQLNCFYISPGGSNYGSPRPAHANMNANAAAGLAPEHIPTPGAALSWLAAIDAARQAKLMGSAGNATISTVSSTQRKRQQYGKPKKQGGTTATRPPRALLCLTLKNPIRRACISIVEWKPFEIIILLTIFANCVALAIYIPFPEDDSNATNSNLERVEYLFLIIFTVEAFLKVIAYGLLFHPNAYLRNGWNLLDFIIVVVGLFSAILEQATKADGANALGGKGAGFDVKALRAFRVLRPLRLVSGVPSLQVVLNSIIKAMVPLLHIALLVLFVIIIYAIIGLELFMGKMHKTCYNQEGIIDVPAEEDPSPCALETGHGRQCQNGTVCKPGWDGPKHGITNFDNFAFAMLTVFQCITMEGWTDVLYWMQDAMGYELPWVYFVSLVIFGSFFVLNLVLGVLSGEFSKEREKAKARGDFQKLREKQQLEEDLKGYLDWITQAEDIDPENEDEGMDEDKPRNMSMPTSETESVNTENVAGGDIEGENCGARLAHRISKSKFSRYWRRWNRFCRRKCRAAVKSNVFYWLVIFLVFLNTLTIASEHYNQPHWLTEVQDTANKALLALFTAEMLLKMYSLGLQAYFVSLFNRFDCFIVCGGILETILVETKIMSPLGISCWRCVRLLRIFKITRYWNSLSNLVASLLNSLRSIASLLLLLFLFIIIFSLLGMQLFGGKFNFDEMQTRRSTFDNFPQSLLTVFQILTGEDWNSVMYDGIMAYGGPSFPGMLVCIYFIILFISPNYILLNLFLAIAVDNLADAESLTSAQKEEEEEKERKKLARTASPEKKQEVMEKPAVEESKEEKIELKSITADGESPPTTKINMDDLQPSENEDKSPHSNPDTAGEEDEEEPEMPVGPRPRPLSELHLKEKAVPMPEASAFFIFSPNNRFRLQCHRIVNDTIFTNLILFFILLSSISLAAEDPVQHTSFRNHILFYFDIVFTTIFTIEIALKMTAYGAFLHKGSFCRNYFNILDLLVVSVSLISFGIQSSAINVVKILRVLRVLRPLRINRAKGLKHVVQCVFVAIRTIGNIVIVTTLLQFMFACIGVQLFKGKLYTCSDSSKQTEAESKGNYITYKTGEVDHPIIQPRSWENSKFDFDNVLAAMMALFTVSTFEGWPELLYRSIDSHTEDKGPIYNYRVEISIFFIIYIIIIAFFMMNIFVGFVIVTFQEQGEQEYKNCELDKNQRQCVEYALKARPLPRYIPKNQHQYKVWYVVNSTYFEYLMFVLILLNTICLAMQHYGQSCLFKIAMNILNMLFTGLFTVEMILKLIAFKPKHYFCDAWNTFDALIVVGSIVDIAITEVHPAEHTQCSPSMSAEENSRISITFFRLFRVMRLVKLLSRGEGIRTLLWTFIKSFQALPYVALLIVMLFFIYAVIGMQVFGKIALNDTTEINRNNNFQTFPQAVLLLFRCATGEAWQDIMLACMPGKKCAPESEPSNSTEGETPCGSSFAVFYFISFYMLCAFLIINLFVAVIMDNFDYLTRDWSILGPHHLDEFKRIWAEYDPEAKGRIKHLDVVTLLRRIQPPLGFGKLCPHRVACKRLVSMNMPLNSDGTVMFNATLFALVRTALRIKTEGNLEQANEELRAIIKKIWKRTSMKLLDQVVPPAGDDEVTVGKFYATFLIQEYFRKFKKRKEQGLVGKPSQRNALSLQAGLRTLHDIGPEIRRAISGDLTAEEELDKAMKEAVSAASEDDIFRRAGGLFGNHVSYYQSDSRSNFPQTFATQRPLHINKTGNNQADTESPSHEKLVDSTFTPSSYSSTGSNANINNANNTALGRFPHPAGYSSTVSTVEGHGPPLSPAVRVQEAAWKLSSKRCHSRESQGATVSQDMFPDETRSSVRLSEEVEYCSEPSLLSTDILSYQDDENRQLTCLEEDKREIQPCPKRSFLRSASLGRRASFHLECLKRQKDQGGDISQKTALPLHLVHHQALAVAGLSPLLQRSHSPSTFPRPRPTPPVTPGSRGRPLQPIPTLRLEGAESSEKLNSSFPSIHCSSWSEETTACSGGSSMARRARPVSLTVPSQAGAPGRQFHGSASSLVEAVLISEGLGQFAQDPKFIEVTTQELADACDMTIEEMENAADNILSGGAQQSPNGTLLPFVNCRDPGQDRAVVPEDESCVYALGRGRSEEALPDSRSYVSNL

[15] = molecular target: T3, Cannabinoid receptor 1
[16] = molecular target: T4, Alpha-1A adrenergic receptor
[17] = molecular target: Mu-type opioid receptor (Homo sapiens, UniProt P35372)
Sequence of Mu-type opioid receptor (P35372 whole entry): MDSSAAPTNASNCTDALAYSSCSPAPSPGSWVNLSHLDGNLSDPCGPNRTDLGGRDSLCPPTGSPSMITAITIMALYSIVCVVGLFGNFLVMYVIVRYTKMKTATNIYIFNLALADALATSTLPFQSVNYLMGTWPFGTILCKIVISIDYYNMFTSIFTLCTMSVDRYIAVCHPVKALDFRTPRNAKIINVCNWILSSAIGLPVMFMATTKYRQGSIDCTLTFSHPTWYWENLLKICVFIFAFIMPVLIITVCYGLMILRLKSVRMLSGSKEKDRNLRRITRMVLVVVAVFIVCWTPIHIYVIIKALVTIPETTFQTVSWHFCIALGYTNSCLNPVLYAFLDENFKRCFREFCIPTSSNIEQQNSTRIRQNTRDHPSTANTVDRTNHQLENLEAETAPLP

[18] = molecular target: Melanocortin receptor 4 (Homo sapiens, UniProt P32245)
Sequence of Melanocortin receptor 4 (P32245 whole entry): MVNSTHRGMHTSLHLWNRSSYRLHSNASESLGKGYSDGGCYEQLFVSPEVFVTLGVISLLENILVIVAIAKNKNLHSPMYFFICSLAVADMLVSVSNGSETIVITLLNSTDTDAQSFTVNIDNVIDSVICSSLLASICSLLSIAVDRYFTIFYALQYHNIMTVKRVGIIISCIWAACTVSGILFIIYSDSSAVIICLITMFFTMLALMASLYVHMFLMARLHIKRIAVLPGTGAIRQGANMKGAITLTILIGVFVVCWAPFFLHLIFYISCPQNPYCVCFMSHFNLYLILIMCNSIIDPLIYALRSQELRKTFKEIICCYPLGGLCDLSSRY
Further: assay procedure not described here.

Sequence of Histamine H3 receptor (Q9Y5N1 whole entry): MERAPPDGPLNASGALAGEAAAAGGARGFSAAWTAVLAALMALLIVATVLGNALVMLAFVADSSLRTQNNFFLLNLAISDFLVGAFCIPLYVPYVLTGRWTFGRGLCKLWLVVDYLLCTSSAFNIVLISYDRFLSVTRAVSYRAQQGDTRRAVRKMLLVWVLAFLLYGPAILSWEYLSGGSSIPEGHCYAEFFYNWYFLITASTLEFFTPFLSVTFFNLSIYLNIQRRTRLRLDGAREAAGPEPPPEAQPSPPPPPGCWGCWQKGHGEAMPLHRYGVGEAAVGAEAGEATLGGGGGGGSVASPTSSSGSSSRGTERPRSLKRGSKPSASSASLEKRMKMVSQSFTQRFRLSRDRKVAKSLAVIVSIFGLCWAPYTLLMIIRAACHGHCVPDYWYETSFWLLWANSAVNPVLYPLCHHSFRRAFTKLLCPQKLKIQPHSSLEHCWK
T1 sequence (P28223 whole entry): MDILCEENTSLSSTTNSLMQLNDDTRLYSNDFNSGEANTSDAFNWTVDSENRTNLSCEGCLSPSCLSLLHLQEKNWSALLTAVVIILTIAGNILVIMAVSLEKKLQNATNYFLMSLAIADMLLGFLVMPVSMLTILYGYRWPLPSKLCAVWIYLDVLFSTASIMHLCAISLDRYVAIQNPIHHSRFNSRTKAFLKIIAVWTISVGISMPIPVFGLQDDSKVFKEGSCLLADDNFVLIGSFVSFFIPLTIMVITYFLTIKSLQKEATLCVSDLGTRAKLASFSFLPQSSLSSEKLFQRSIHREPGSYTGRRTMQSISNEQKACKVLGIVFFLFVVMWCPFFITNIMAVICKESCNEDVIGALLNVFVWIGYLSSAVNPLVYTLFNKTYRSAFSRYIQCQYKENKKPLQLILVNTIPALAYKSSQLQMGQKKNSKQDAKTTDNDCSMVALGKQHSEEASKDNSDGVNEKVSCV
Sequence of Vasopressin V1a receptor (P37288 whole entry): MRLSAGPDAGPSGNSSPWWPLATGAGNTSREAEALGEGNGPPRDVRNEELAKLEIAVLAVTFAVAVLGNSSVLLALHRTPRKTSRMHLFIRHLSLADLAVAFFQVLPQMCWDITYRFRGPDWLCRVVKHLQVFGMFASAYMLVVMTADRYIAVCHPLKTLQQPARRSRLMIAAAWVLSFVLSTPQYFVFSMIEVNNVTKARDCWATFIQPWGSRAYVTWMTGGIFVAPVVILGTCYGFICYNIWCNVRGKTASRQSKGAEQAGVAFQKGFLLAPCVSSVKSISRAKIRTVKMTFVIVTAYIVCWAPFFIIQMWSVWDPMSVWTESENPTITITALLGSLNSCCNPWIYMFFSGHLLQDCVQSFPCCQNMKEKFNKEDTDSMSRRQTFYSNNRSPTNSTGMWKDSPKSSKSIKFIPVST

SMILES	AC50 [1] [µM]	AC50 [2] [µM]	AC50 [3] [µM]	AC50 [4] [µM]	AC50 [5] [µM]	AC50 [6] [µM]	AC50 [7] [µM]	AC50 [8] [µM]	AC50 [9] [µM]	AC50 [10] [µM]	AC50 [11] [µM]	AC50 [12] [µM]	AC50 [13] [µM]	AC50 [14] [µM]	AC50 [15] [µM]	AC50 [16] [µM]	AC50 [17] [µM]	AC50 [18] [µM]
Oc1ccc2c(c1)[C@@]13CCCC[C@@]1(O)[C@@H](C2)N(CC1CCC1)CC3 [BUTORPHANOL]	> 30	> 30	> 30	> 30	> 30	> 30	> 30	> 30	> 30	> 30	> 30	> 30	> 30					
C=C1/C(=C\C=C2/CCC[C@]3(C)[C@@H]([C@H](C)/C=C/[C@@H](O)C4CC4)CC[C@@H]23)C[C@@H](O)C[C@@H]1O [CALCIPOTRIENE]	> 30	> 30	> 30		> 30			> 30		> 30	> 30	> 30	> 30	> 30	> 30	29		
C#CCOc1ccc(N)cc1C(=O)NCCCC [PARSALMIDE]	> 30	30	> 30		> 30	> 30	> 30		> 30	> 30	> 30	> 30	> 30	> 30				
COc1ccc(-c2noc(CC(=O)O)c2-c2ccc(OC)cc2)cc1 [MOFEZOLAC]	> 30	> 30	> 30	> 30	> 30	> 30	> 30	> 30		> 30	> 30	> 30	> 30	> 30				
CC(=O)O[C@H](CC(=O)[O-])C[N+](C)(C)C [ACETYLCARNITINE]	> 30	> 30	> 30	> 30	> 30	> 30	> 30	> 30		> 30	> 30	> 30	> 30	> 30				
O=C(O)c1ccccc1Nc1cc(Cl)ccc1C(=O)O [LOBENZARIT]	> 30	> 30	> 30	> 30	> 30	> 30	> 30	> 30		> 30	> 30	> 30	> 30	> 30				
C=C[C@@]1(C)CC(=O)[C@]2(O)[C@@]3(C)[C@@H](O)CCC(C)(C)[C@@H]3[C@H](O)[C@H](OC(C)=O)[C@@]2(C)O1 [COLFORSIN]	> 30	18	> 30		> 30	> 30	> 30	3.5	1.2	> 30		> 30		> 30				
COc1ccc2nc3cc(Cl)ccc3c(Nc3cc(CN4CCCC4)c(O)c(CN4CCCC4)c3)c2n1 [PYRONARIDINE]	> 30	> 30	> 30		> 30	> 30	> 30	> 30		> 30	> 30	> 30	> 30	> 30				
CC(=O)[C@@]1(O)CC[C@H]2[C@@H]3C=C(Cl)C4=CC(=O)[C@@H]5C[C@@H]5[C@]4(C)[C@H]3CC[C@@]21C [CYPROTERONE]	> 10	> 10							> 10		2.07	> 10	> 10	> 10	> 10	> 10	> 30	> 10
CC1=C(C)C(=O)C(C(CCCCCC(=O)O)c2ccccc2)=C(C)C1=O (stereo not given) [SERATRODAST]	> 30	> 30	> 30					> 30		> 30	> 30	> 30	> 30	> 30	> 30	> 30		> 30
C[N@+]1(CCF)[C@@H]2CC[C@H]1C[C@@H](OC(=O)C(O)(c1ccccc1)c1ccccc1)C2	> 30	> 30	> 30		> 30	> 30	> 30	> 30		> 30	> 30	> 30	> 30	> 30				
COc1cc2c(cc1OC)C(CCc1ccc(Cl)cc1)N(C)CC2 (stereo not given) [METHOPHOLINE]	> 30	> 10	> 30						> 10	> 30	> 10	> 10	> 10	> 10	> 10	> 10	> 30	> 30
CCOC(=O)O[C@]1(C(=O)OCCl)CC[C@H]2[C@@H]3CCC4=CC(=O)C=C[C@]4(C)[C@H]3[C@@H](O)C[C@@]21C [LOTEPREDNOL ETABONATE]	> 30	> 30	> 30		> 30			> 30		0.0056	> 30	> 30	> 30	> 30	> 30			
CCCCCCCCCCCCCCCCCCCCCC(=O)Nc1ccn([C@@H]2O[C@H](CO)[C@@H](O)[C@@H]2O)c(=O)n1 [ENOCITABINE]	> 30	> 30	> 30		> 30	> 30	> 30	> 30		> 30	> 30	> 30	> 30	> 30				
